Entries after “also recorded” stand apart in the source; their conditions may differ. Marks after values point to notes of the source that are not given here.
Experiments:
[1] = test system: patients with advanced solid malignancies; assay: Phase 1 dose-escalation study: safety, treatment-emergent adverse events; format: in vivo; conditions: for Abdominal distension (related TEAE) / Anemia (related TEAE) / Anorexia (related TEAE) / At least 1 related TEAE / Chest discomfort (related TEAE) / Constipation (related TEAE) / Cough (related TEAE) / Dyspepsia (related TEAE) / Dyspnea (related TEAE) / Edema (related TEAE) / Face edema (related TEAE) / Fatigue (related TEAE) / Fluid retention (related TEAE) / Increased appetite (related TEAE) / Insomnia (related TEAE) / Muscle spasms (related TEAE) / Myalgia (related TEAE) / Nausea (related TEAE) / Peripheral edema (related TEAE) / Pleural effusion (related TEAE) / Rash (related TEAE) / Vomiting (related TEAE) / Weight increase (related TEAE): N = 31 patients
[2] = test system: cancer cell growth; conditions: inhibition of cancer cell growth; cited from earlier work
[3] = test system: human colorectal tumor xeno-grafts; conditions: human colorectal tumor xeno-grafts in nude rodents; cited from earlier work
[4] = in vivo; cited from earlier work
[5] = Grade 3 (dose-limiting toxicity)
[6] = Patient 20, 0.75 mg twice daily, by cycle 3, day 1, CTCAE grade 4

## Cc1cc(Oc2ccc3nc(COc4ccc(CC5SC(=O)NC5=O)cc4)n(C)c3c2)cc(C)c1N (centres unmarked) [Efatutazone]
[1]; 0.10-, 0.25-, and 1.15-mg cohorts, not dose dependent
  Dose-limiting toxicities: Three episodes of dose-limiting toxicities; also recorded: Three DLTs related to fluid retention
[1]; 31 patients
  Patients with at least 1 treatment-related AE: 100%
[1]; 31 treated patients
  Grade ≥4 edema: No patient
[1]; Grade 1
  Abdominal distension (related TEAE): 1 (3.2) No. (%)
  Anemia (related TEAE): 5 (16.1) No. (%)
  Anorexia (related TEAE): 3 (9.7) No. (%)
  At least 1 related TEAE: 13 (41.9) No. (%)
  Chest discomfort (related TEAE): 1 (3.2) No. (%)
  Constipation (related TEAE): 2 (6.5) No. (%)
  Cough (related TEAE): 3 (9.7) No. (%)
  Dyspepsia (related TEAE): 2 (6.5) No. (%)
  Dyspnea (related TEAE): 4 (12.9) No. (%)
  Edema (related TEAE): 1 (3.2) No. (%)
  Face edema (related TEAE): 2 (6.5) No. (%)
  Fatigue (related TEAE): 10 (32.3) No. (%)
  Fluid retention (related TEAE): 2 (6.5) No. (%)
  Increased appetite (related TEAE): 3 (9.7) No. (%)
  Insomnia (related TEAE): 1 (3.2) No. (%)
  Muscle spasms (related TEAE): 1 (3.2) No. (%)
  Myalgia (related TEAE): 2 (6.5) No. (%)
  Nausea (related TEAE): 5 (16.1) No. (%)
  Peripheral edema (related TEAE): 8 (25.8) No. (%)
  Pleural effusion (related TEAE): 1 (3.2) No. (%)
  Rash (related TEAE): 2 (6.5) No. (%)
  Vomiting (related TEAE): 2 (6.5) No. (%)
  Weight increase (related TEAE): 17 (54.8) No. (%)
[1]; Grade 2
  Abdominal distension (related TEAE): 1 (3.2) No. (%)
  Anemia (related TEAE): 3 (9.7) No. (%)
  Anorexia (related TEAE): 0 No. (%)
  At least 1 related TEAE: 11 (35.5) No. (%)
  Chest discomfort (related TEAE): 0 No. (%)
  Constipation (related TEAE): 0 No. (%)
  Cough (related TEAE): 1 (3.2) No. (%)
  Dyspepsia (related TEAE): 0 No. (%)
  Dyspnea (related TEAE): 0 No. (%)
  Edema (related TEAE): 0 No. (%)
  Face edema (related TEAE): 0 No. (%)
  Fatigue (related TEAE): 2 (6.5) No. (%)
  Fluid retention (related TEAE): 1 (3.2) No. (%)
  Increased appetite (related TEAE): 0 No. (%)
  Insomnia (related TEAE): 1 (3.2) No. (%)
  Muscle spasms (related TEAE): 1 (3.2) No. (%)
  Myalgia (related TEAE): 0 No. (%)
  Nausea (related TEAE): 1 (3.2) No. (%)
  Peripheral edema (related TEAE): 7 (22.6) No. (%)
  Pleural effusion (related TEAE): 1 (3.2) No. (%)
  Rash (related TEAE): 0 No. (%)
  Vomiting (related TEAE): 1 (3.2) No. (%)
  Weight increase (related TEAE): 0 No. (%)
[1]; [5]
  Edema (related TEAE): 2 (6.5) ^b No. (%)
  Pleural effusion (related TEAE): 1 (3.2) ^b No. (%)
[1]; Grade 3
  Abdominal distension (related TEAE): 0 No. (%)
  Anemia (related TEAE): 4 (12.9) No. (%)
  Anorexia (related TEAE): 0 No. (%)
  At least 1 related TEAE: 6 (19.4) No. (%)
  Chest discomfort (related TEAE): 1 (3.2) No. (%)
  Constipation (related TEAE): 0 No. (%)
  Cough (related TEAE): 0 No. (%)
  Dyspepsia (related TEAE): 0 No. (%)
  Dyspnea (related TEAE): 1 (3.2) No. (%)
  Face edema (related TEAE): 0 No. (%)
  Fatigue (related TEAE): 2 (6.5) No. (%)
  Fluid retention (related TEAE): 0 No. (%)
  Increased appetite (related TEAE): 0 No. (%)
  Insomnia (related TEAE): 0 No. (%)
  Muscle spasms (related TEAE): 0 No. (%)
  Myalgia (related TEAE): 0 No. (%)
  Nausea (related TEAE): 0 No. (%)
  Peripheral edema (related TEAE): 1 (3.2) No. (%)
  Rash (related TEAE): 0 No. (%)
  Vomiting (related TEAE): 0 No. (%)
  Weight increase (related TEAE): 0 No. (%)
[1]; Grade 4
  Abdominal distension (related TEAE): 0 No. (%)
  Anemia (related TEAE): 0 No. (%)
  Anorexia (related TEAE): 0 No. (%)
  At least 1 related TEAE: 1 (3.2) ^a No. (%)
  Chest discomfort (related TEAE): 0 No. (%)
  Constipation (related TEAE): 0 No. (%)
  Cough (related TEAE): 0 No. (%)
  Dyspepsia (related TEAE): 0 No. (%)
  Dyspnea (related TEAE): 0 No. (%)
  Edema (related TEAE): 0 No. (%)
  Face edema (related TEAE): 0 No. (%)
  Fatigue (related TEAE): 0 No. (%)
  Fluid retention (related TEAE): 0 No. (%)
  Increased appetite (related TEAE): 0 No. (%)
  Insomnia (related TEAE): 0 No. (%)
  Muscle spasms (related TEAE): 0 No. (%)
  Myalgia (related TEAE): 0 No. (%)
  Nausea (related TEAE): 0 No. (%)
  Peripheral edema (related TEAE): 0 No. (%)
  Pleural effusion (related TEAE): 0 No. (%)
  Rash (related TEAE): 0 No. (%)
  Vomiting (related TEAE): 0 No. (%)
  Weight increase (related TEAE): 0 No. (%)
[1]; Overall
  Abdominal distension (related TEAE): 2 (6.5) No. (%)
  Anemia (related TEAE): 12 (38.7) No. (%)
  Anorexia (related TEAE): 3 (9.7) No. (%)
  At least 1 related TEAE: 31 (100) No. (%)
  Chest discomfort (related TEAE): 2 (6.5) No. (%)
  Constipation (related TEAE): 2 (6.5) No. (%)
  Cough (related TEAE): 4 (12.9) No. (%)
  Dyspepsia (related TEAE): 2 (6.5) No. (%)
  Dyspnea (related TEAE): 5 (16.1) No. (%)
  Edema (related TEAE): 3 (9.7) No. (%)
  Face edema (related TEAE): 2 (6.5) No. (%)
  Fatigue (related TEAE): 14 (45.2) No. (%)
  Fluid retention (related TEAE): 3 (9.7) No. (%)
  Increased appetite (related TEAE): 3 (9.7) No. (%)
  Insomnia (related TEAE): 2 (6.5) No. (%)
  Muscle spasms (related TEAE): 2 (6.5) No. (%)
  Myalgia (related TEAE): 2 (6.5) No. (%)
  Nausea (related TEAE): 6 (19.4) No. (%)
  Peripheral edema (related TEAE): 16 (51.6) No. (%)
  Pleural effusion (related TEAE): 3 (9.7) No. (%)
  Rash (related TEAE): 2 (6.5) No. (%)
  Vomiting (related TEAE): 3 (9.7) No. (%)
  Weight increase (related TEAE): 17 (54.8) No. (%)
[1]; [6]
  Serum cholesterol, peak: 515 mg/dL
  Serum triglycerides, peak: 4525 mg/dL
[1]; all dose levels
  Cardiac dysfunction (serial electrocardiograms and echocardiograms): did not reveal any evidence of cardiac dysfunction; also recorded: no measurable cardiotoxicity
  Patients with anemia (treatment-related AE): 38.7%
  Patients with fatigue (treatment-related AE): 45.2%
  Patients with peripheral edema: 51.6%
  Patients with weight increase (treatment-related AE): 54.8%
[1]; doses 0.10 to 1.15 mg PO twice daily
  Maximum tolerated dose (MTD): not reached
[1]; regardless of attribution (bronchospasm; hypercholesterolemia and hypertriglyceridemia)
  Patients with grade 4 TEAEs: Two patients
[2]
  Potency relative to rosiglitazone: at least 50 ×
  Potency relative to troglitazone: ≥ 500 ×
[3]
  Growth of tumor xenografts: inhibits
[4]
  Tolerability of single dose: well tolerated

Reference: article PMC3726261 (Cancer, 2012)
